Results published in patent publication EP1268431B1 (Wyeth, priority 2000, dated 2001).
Values joined by “and” are separate entries in the source; they are usually repeats but may differ in a detail not shown here. Equal entries are not always repeated.

Experiments:
[1] = test system: human adenocarcinoma cell line CaCo-2; assay: Cell Based Screen for Inhibitors of Raf Kinase, CaCo-2 cells; details: CaCo-2, four days, SRB
Procedure: (§1) • Cell Lines: Human adenocarcinoma cell line LoVo which is known to be growth inhibited by low nM concentrations of a reference standard inhibitor of Ras and human adenocarcinoma cell line CaCo-2, which is known to be growth resistant to the same reference compound. • Cell Media: RPMI 1640 with 10% Fetal Bovine Serum supplemented with L-glutamine and Pennicilin/Streptomycin. • Compounds: Supplied usually as a 10 mM stock in 100% DMSO. • Normal Saline: 150 mM NaCl • Trichloroacetic Acid (TCA): 50% (w/v) in water • Sulforhodamine B (SRB): 0.4% (w/v) in 1% Acetic Acid • Tris Base: 10 mM in water
(§2) Cells are plated at 2000 cells per well for cell line LoVo and 1500 cells for cell line CaCo-2 in 96 well plates. Cells are plated in media (200 µl) and allowed to adhere overnight at 37° C. At 24 hours post plating, compounds are added directly at a volume of 0.5 µl. For the qualitative screen (compounds screened at 25 µM) compound is added directly to cells. For the quantitative screen, compound is first diluted in DMSO to generate concentrations of compound or reference standard of: 1, 5, 10 and 25 µM. It is advisable to make the dilutions in an identical 96 well plate so that compounds may be added using a multichannel micropipettor set at 0.5 µl. The cells are then incubated for four days after which the media is removed using a 12 well manifold by first tipping the plate forward at a 45 degree angle and then inserting the manifold in an upright orientation to prevent the tips of the manifold from disturbing cells at the bottom of the plate. 200 µl of normal saline is then added to each well using an 8 well multichannel pipettor, followed by the careful addition of 50 µl of 50% TCA. The plates are then incubated for 2 hours at 4 ° C, after which the supernatant is removed using the same technique as above and the plated washed twice with 200 µl water. The plates are then air dried and 50 µl of SRB stock solution is carefully added so that the entire bottom of each well is covered. This again may be used using an 8 well multichannel pipettor. The SRB is incubated with fixed cells for 15 minutes at room temperature after which the SRB is removed with the manifold as described above and the plates washed twice with 350 µl of 1% acetic acid per well each time.The plates are then air dried after which the bound SRB is released from protein by the addition of 200 µl of Tris base. Resolubilizing the SRB is aided by placing the plates on a rotator for 15-30 minutes. The absorbance of each well is determined at 550 or 562 nm using a microtiter plate reader.
(§3) Each compound or dilution thereof is performed in triplicate. Outliers are identified by visual inspection of the data. Each plate should have a "0" control (vehicle only).
(§4) Quantitative Assay: A standard curve is constructed by plotting the concentration of compound against the average absorbance calculated at that concentration. A curve is plotted and the concentration at which the curve passes through the 50% the absorbance mark seen in the "0" control well is the IC50 calculated for that compound. […]

[2] = test system: Human adenocarcinoma cell line LoVo; assay: Cell Based Screen for Inhibitors of Raf Kinase, LoVo cells; details: four days, SRB
Procedure: as §1, §2, §3, §4

| IC50 [1] | IC50 ([1]; Homo sapiens, Caco-2, 96 h) | IC50 [2] | IC50 ([2]; Homo sapiens, 96 h) | SMILES |
| --- | --- | --- | --- | --- |
| 5500 nM | > 10000 nM | 9 nM |  | Cn1ccnc1Sc1ccc(Nc2c(C#N)cnc3cc(-c4ccc(CN5CCOCC5)cn4)ccc23)cc1Cl [Example 187, 4-{3-chloro-4-[(1-methyl-1H-imidazol-2-yl)sulfanyl]anilino}-7-[5-(4-morpholinylmethyl)-2-pyridinyl]-3-quinolinecarbonitrile] |
|  | 940 nM |  | 275 nM | CCN1CCN(Cc2ccnc(-c3ccc4c(Nc5ccc(Sc6nccn6C)c(Cl)c5)c(C#N)cnc4c3)c2)CC1 [Example 205, 4-({3-chloro-4-[(1-methyl-1H-imidazol-2-yl)sulfanyl]phenyl}amino)-7-{4-[(4-ethyl-1-piperazinyl)methyl]-2-pyridinyl}-3-quinolinecarbonitrile] |
|  | > 1000 nM |  | 24.5 nM | Cn1ccnc1Sc1ccc(Nc2c(C#N)cnc3cc(-c4ccc(CN5CCN(CCO)CC5)o4)ccc23)cc1Cl [Example 157, 4-{3-chloro-4-[(1-methyl-1H-imidazol-2-yl)sulfanyl]anilino}-7-(5-{[4-(2-hydroxyethyl)-1-piperazinyl]methyl}-2-furyl)-3-quinolinecarbonitrile] |
|  | > 1000 nM |  | 15 nM | Cn1ccnc1Sc1ccc(Nc2c(C#N)cnc3cc(-c4ccc(CN5CCSCC5)cn4)ccc23)cc1Cl [Example 219] |
|  | > 1000 nM |  | 7.7 nM | CCN1CCN(Cc2ccc(-c3ccc4c(Nc5ccc(Sc6nccn6C)c(Cl)c5)c(C#N)cnc4c3)cn2)CC1 [Example 220, 4-({3-chloro-4-[(1-methyl-1H-imidazol-2-yl)sulfanyl]phenyl}amino)-7-{6-[(4-ethyl-1-piperazinyl)methyl]-3-pyridinyl}-3-quinolinecarbonitrile] |
| 2800 nM | 1900 nM | 15 nM | 20 nM | COc1cc2c(Nc3ccc(Sc4nccn4C)c(Cl)c3)c(C#N)cnc2cc1-c1csc(CN2CCOCC2)c1 [Example 125, 4-{3-Chloro-4-[(1-methyl-1H-imidazol-2-yl)sulfanyl]anilino}-6-methoxy-7-[5-(4-morpholinylmethyl)-3-thienyl]-3-quinolinecarbonitrile] |
|  | > 1000 nM |  | 280 nM | CN1CCN(Cc2ccnc(-c3ccc4c(Nc5ccc(Sc6nccn6C)c(Cl)c5)c(C#N)cnc4c3)c2)CC1 [Example 206, 4-({3-chloro-4-[(1-methyl-1H-imidazol-2-yl)sulfanyl]phenyl}amino)-7-{4-[(4-methyl-1-piperazinyl)methyl]-2-pyridinyl}-3-quinolinecarbonitrile] |
|  |  |  | 2 nM | Cn1ccnc1Sc1ccc(Nc2c(C#N)cnc3cc(-c4ccc(N5CCOCC5)nc4)ccc23)cc1Cl [Example 190, 4-{3-chloro-4-[(1-methyl-1H-imidazol-2-yl)sufanyl]anilino}-7-[6-(4-morpholinyl)-3-pyridinyl]-3-quinolinecarbonitrile] |
| 600 nM | 1000 nM | 440 nM and 310 nM | 290 nM | N#Cc1cnc2cc(-c3ccc(CN4CCOCC4)cn3)ccc2c1Nc1ccc(Oc2ccccc2)cc1 [Example 56, 7-[5-(4-Morpholinylmethyl)-2-pyridinyl]-4-(4-phenoxyanilino)-3-quinolinecarbonitrile] |
|  |  | 47 nM | 40 nM | Cn1ccnc1Sc1ccc(Nc2c(C#N)cnc3cc(-c4cc(CN5CCOCC5)c(CN5CCOCC5)s4)ccc23)cc1Cl [Example 169, 7-[4,5-bis(4-morpholinylmethyl)-2-thienyl]-4-{3-chloro-4-[(1-methyl-1H-imidazol-2-yl)sulfanyl]anilino}-3-quinolinecarbonitrile] |
|  |  | 5 nM and < 5 nM | 8 nM | CCN1CCN(Cc2ccc(-c3ccc4c(Nc5ccc(Sc6nccn6C)c(Cl)c5)c(C#N)cnc4c3)nc2)CC1 [Example 171, 4-{3-chloro-4-[(1-methyl-1H-imidazol-2-yl)sulfanyl]anilino}-7-{5-[(4-ethyl-1-piperazinyl)methyl]-2-pyridinyl}-3-quinolinecarbonitrile] |
